Earlier results in patent publication US10934070B2, “Anti-scalping pharmaceutical packaging film” (BEMIS COMPANY, INC., priority 2014, dated 2021).

Settings: at 25° C.

SMILES: CN1CCCC1c1cccnc1 (stereo not shown) [Nicotine]
- vapor pressure: 5.65 Pa
